Source: article PMC11968506, “Toxicokinetics and analytical toxicology of the phenmetrazine-derived new psychoactive substance 3,4-methylenedioxyphenmetrazine studied by means of in vitro systems” (Archives of Toxicology, 2025)

How the values were obtained:
CYP3A4 = CYP3A4 (Homo sapiens, UniProt P08684); test: CYP inhibition cocktail assay in pHLM, CYP3A4 (testosterone)
Method: A modified dual-cocktail based method (Dinger et al. [2014b]) was used. Substrate cocktail A consisted of 8.9 µM dextromethorphan (CYP2D6), 86 µM testosterone (CYP3A4), 3.5 µM diclofenac (CYP2C9), and 12 µM phenacetin (CYP1A2). Substrate cocktail B included 30 µM bupropion (CYP2B6), 2 µM amodiaquine (CYP2C8) and 21 µM omeprazole (CYP2C19). Substrate concentrations were near their respective Michaelis–Menten constant (Km) values (Dinger et al. [2014a]) and all concentrations are final. Enzyme inhibition was investigated using a positive control, a test group, a control group, an interference group, and a negative control. In the test group, specific inhibitors were replaced by MDPM (20 µM). Instead of inhibitors, phosphate buffer was used in the control group. Enzymes were replaced with phosphate buffer in the negative control group. The interference group was incubated like the control group, but the reaction was stopped with 20 µM MDPM in acetonitrile, also containing 2.5 µM trimipramine-d3. All groups were incubated with a NADPH-regenerating system, consisting of 5 mM isocitrate, 2 U/mL isocitrate dehydrogenase, 5 mM Mg^2+, and 1.2 mM NADP^+. Further, substrate cocktail A or B, 90 mM phosphate buffer (pH 7.4), and 200 U/mL superoxide dismutase were added to each group. […] All groups were preincubated for 10 min at 37 °C. […] Enzyme inhibition was evaluated by metabolite formation. […]

CYP2C19 = CYP2C19 (Homo sapiens, UniProt P33261); test: CYP inhibition cocktail assay in pHLM, CYP2C19 (omeprazole); settings: inhibitor 20 µM
Method: (§1) A modified dual-cocktail based method (Dinger et al. [2014b]) was used. Substrate cocktail A consisted of 8.9 µM dextromethorphan (CYP2D6), 86 µM testosterone (CYP3A4), 3.5 µM diclofenac (CYP2C9), and 12 µM phenacetin (CYP1A2). Substrate cocktail B included 30 µM bupropion (CYP2B6), 2 µM amodiaquine (CYP2C8) and 21 µM omeprazole (CYP2C19). Substrate concentrations were near their respective Michaelis–Menten constant (Km) values (Dinger et al. [2014a]) and all concentrations are final. Enzyme inhibition was investigated using a positive control, a test group, a control group, an interference group, and a negative control. In the test group, specific inhibitors were replaced by MDPM (20 µM). Instead of inhibitors, phosphate buffer was used in the control group. Enzymes were replaced with phosphate buffer in the negative control group. The interference group was incubated like the control group, but the reaction was stopped with 20 µM MDPM in acetonitrile, also containing 2.5 µM trimipramine-d3. All groups were incubated with a NADPH-regenerating system, consisting of 5 mM isocitrate, 2 U/mL isocitrate dehydrogenase, 5 mM Mg^2+, and 1.2 mM NADP^+. Further, substrate cocktail A or B, 90 mM phosphate buffer (pH 7.4), and 200 U/mL superoxide dismutase were added to each group. […] All groups were preincubated for 10 min at 37 °C. Then, pHLM (0.4 mg microsomal protein/mL) was added to each group except the negative control. Incubations were done for 15 min at 37 °C. Therefore, 50 µL of acetonitrile (− 20 °C) containing 2.5 µM trimipramine-d3 as internal standard was added. Incubations were done in triplicates and organic solvent in the incubation mixture was below 1% (Chauret et al. [1998]). Afterwards the samples were vortexed and centrifuged for 2 min at 18,407×g. 70 µL of the supernatant were transferred to autosampler vials and 10 µL were injected onto the LC-HRMS/MS system. Enzyme inhibition was evaluated by metabolite formation. […] The following settings were used: unpaired; one-tailed; significance level, 0.05; confidence intervals, 99%.

CYP2B6 = target: T1, CYP2B6 (Homo sapiens, UniProt P20813); test: CYP inhibition cocktail assay in pHLM, CYP2B6 (bupropion); settings: inhibitor 20 µM
T1 sequence (P20813 1-491): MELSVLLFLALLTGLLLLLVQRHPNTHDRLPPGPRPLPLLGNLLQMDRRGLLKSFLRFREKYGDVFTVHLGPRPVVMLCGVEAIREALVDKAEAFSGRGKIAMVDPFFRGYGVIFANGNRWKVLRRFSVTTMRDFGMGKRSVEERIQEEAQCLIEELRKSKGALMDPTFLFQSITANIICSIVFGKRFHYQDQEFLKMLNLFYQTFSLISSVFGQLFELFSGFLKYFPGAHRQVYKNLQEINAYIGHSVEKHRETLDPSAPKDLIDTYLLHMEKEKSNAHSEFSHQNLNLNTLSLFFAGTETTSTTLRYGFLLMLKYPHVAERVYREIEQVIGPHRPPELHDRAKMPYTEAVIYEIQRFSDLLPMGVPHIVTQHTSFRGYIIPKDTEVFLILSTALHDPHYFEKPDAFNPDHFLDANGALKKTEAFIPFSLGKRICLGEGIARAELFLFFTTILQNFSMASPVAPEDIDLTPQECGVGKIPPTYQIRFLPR
Method: as §1

[1] = In vitro half-life by substrate depletion in pHLS9; format: in vitro ADME; settings: human, pooled human liver S9 fraction (pHLS9), pHLS9, 25 µM substrate, sampling 0-180 min, read-out: in vitro half-life (t1/2)
Method: Incubations with pHLS9 were performed in accordance with previous publications and minor adjustments (Richter et al. [2017]). First, 25 μg/mL alamethicin (UGT reaction mix B), pHLS9 (2 mg microsomal protein/mL), 0.1 mM AcCoA, 2.3 mM acetylcarnitine, 8 U/mL carnitine acetyltransferase, 2.5 mM isocitrate, 0.8 U/mL isocitrate dehydrogenase, 100 U/mL superoxide dismutase, 0.6 mM NADP^+ and 2.5 mM Mg^2+ were preincubated for 10 min at 37 °C. Then, 2.5 mM UDP-glucuronic acid (UGT reaction mix A), 40 µM PAPS, 1.2 mM SAM, 1 mM DTT and 10 mM GSH were added. The reaction was started by adding the respective substrate MDPM, MDMA, or quetiapine (25 µM each). MDMA and quetiapine were incubated as positive controls. Negative control samples without enzymes and blank samples without substrates were incubated to identify not metabolically formed compounds and to confirm the absence of interfering compounds. […] Aliquots (50 µL) were transferred to a new reaction tube after 60 and 360 min. […] Samples were vortexed, stored at − 20 °C for 30 min, and centrifuged for 2 min at 18,407×g.
Incubations to investigate in vitro half-life were performed under the same incubation conditions as described above and done in duplicate. […] A t-test was performed to compare absolute peak areas of the incubation group and the control group at 0 min. […]
In vitro half-life was determined by measuring substrate depletion. […]

Chain of CYP2C19 (P33261 whole entry): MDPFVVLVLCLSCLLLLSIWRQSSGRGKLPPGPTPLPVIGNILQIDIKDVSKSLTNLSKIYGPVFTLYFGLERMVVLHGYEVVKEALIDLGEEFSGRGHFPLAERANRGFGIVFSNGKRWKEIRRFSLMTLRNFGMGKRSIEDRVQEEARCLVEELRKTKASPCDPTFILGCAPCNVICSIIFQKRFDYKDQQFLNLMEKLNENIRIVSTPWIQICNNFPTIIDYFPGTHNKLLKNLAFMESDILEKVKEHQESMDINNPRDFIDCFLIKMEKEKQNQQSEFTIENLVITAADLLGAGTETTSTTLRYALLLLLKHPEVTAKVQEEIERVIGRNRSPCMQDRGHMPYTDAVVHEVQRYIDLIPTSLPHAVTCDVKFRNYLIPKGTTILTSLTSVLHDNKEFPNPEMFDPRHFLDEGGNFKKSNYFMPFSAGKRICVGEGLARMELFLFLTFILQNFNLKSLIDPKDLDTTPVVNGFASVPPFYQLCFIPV
Chain of CYP3A4 (P08684 whole entry): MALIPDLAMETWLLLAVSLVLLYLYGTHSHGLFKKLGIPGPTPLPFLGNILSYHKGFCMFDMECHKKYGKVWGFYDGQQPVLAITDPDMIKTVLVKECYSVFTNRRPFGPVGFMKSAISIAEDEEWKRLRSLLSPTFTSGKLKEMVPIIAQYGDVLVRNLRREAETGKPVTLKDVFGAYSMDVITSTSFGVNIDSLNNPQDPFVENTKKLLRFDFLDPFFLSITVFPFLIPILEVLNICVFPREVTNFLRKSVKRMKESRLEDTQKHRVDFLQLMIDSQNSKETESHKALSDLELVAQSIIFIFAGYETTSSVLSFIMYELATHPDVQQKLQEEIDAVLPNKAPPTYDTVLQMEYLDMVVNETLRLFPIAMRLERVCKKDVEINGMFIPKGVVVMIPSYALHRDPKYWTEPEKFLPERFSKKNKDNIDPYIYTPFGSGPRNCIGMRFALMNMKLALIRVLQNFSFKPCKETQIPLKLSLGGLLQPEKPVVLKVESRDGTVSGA

CC1NCCOC1c1ccc2c(c1)OCO2 (stereo not shown) [MDPM, 2-(1,3-benzodioxol-5-yl)-3-methylmorpholine]
inhibition at 15 min, 20 µM (CYP3A4; human, pH 7.4): 28%
CYP3A4 metabolite formation (CYP3A4; inhibitor 20 µM, testosterone 86 µM, pHLM 0.4 mg/mL, 15 min, control without inhibitor = 100%): 72%
CYP2C19 metabolite formation (CYP2C19; omeprazole 21 µM, pHLM 0.4 mg/mL, 15 min, control without inhibitor = 100%): 86%
inhibition of CYP2C19 (CYP2C19; omeprazole, pHLM, t-test versus control): no significant inhibition
CYP2B6 metabolite formation (CYP2B6; bupropion 30 µM, pHLM 0.4 mg/mL, 15 min, control without inhibitor = 100%): 113%
inhibition of CYP2B6 (CYP2B6; bupropion, pHLM, t-test versus control): no significant inhibition
half-life at 25 µM [1]: > 3 h
